Test [1] concerns R848-driven NFκB reporter (SEAP) in THP-1 cells. The experiment in a line: TLR7/8 (R848) stimulated NFκB reporter gene assay in THP1-Dual cells. The class given is cell-based. The conditions noted are these: Homo sapiens, THP-1, 10 μM compound, 1 μM R848, THP1-Dual cells; read-out: R848-driven NFκB reporter gene assay (Percent inhibition at 10 μM). Here is the method: (§1) Compounds described herein are added to the human leukemic monocyte-like cell line THP-1 for bioactivity assessment. THP1-Dual cells (InvivoGen, San Diego, CA) feature the Lucia gene, a secreted luciferase reporter gene, under the control of an ISG54 minimal promoter in conjunction with five IFN-stimulated response elements. THP1-Dual cells also express a secreted embryonic alkaline phosphatase (SEAP) reporter gene driven by an IFN-β minimal promoter fused to five copies of the NF-κB consensus transcriptional response element and three copies of the c-Rel binding site. As a result, THP1-Dual cells allow the simultaneous study of the NF-κB pathway, by monitoring the activity of SEAP, and the IRF pathway, by assessing the activity of Lucia luciferase.
(§2) THP-1 dual reporter cells were grown in RPMI 1640 culture medium with 2 mM L-glutamine, 25 mM HEPES, 10% heat-inactivated fetal bovine serum, 100 μg/ml Normocin antibiotic (InvivoGen), Pen-Strep antibiotic (100 U/ml-100 μg/ml, InvivoGen). On the day of the assay, cells were seeded in a 384 flat-bottom well plate at 25,000 cells/well and incubated for 2 hours. Cells were then incubated with 10 μM of the compounds described herein or with 1 μM of IKK-16 (Selleck), a potent inhibitor of IκB kinases (IKKs) or with DMSO (vehicle control) for 2 hours, followed by the addition of the synthetic TLR7/8 agonist R848 at 1 μM and incubation for 16 hours. After incubation was concluded, the cultures supernatants were collected and IRF related activity was assessed by measurement of the Lucia luciferase, using Quanti-Luc assay (InvivoGen). NF-κB pathway activity was assessed by quantifying SEAP using Quanti-Blue assay (InvivoGen).

Test [2] relates to R848-driven IRF reporter (Lucia luciferase, ISG54 promoter/IFN-stimulated response elements) in THP-1 cells. The experiment in a line: TLR7/8 (R848) stimulated interferon response element reporter gene assay in THP1-Dual cells. Format: cell-based. The conditions noted are these: Homo sapiens, THP-1, 10 μM compound, 1 μM R848, THP1-Dual cells; read-out: R848-driven IRF reporter gene assay (Percent inhibition at 10 μM). Here is the method: as §1, §2

Test [3] deals with TNBS-induced colitis, Balb/c mice. The experiment in a line: TNBS-induced model of colitis in mice, dosing from day -1, prophylactic mode. The conditions noted are these: for IL-1ß in plasma / IL-6 in plasma: vs Vehicle group; for pathological score (crypt structure failure, inflammatory cell infiltration): H&E colon. The class given is in vivo. Here is the method:
(§3) Female Balb/c mice aged 8 weeks and weighing 18-20 g were housed under standard conditions. The mice were divided into groups with 8-10 mice in each group by body weight. Mice in sham group received intracolonic injection with 50% ethanol (0.1 mL) at day 0, whereas mice in other Trinitrobenzene sulfonic acid (TNBS) colitis model groups received intracolonic injection of 2% TNBS solution in ethanol (0.1 mL) at day 0. The reference compound Mesalazine (Selleck) and test articles described here were dosed from day-1 to day 6. Day 6 was the endpoint, and samples were immediately harvested for the last endpoint. Mesalazine was dissolved in distilled water (pH 7.0) and test articles were dissolved in Phosal 50 PG for delivery by oral gavage.
As noted, dosing of the compounds described herein, as well as the positive control mesalamine, began one day before TNBS administration. Animals in this scenario have not yet developed colitis symptoms before administration of test articles. For this reason, we refer to these conditions as “prophylactic mode”.
(§4) Body weight and Disease Activity Index (DAI) scores were recorded daily to assess the colitis. DAI score was the sum of the weight loss score, stool score and bleeding sub-scores. A blinded scoring system was employed to assess the colitis. The DAI scorer blinded to the group information and animal ID was responsible for the stool consistency and bleeding evaluations. If there was no blood visible with naked eyes, the Fecal occult blood (FOB) test was performed with a fecal occult blood test strip (the improved pyramidon method).
(§5) Colon tissue morphology, damage and healing were assessed by histopathology. The colons were harvested, mesentery and adipose tissue were carefully removed, and internal contents were removed by rinsing with cold PBS. The colons were Swiss-rolled and fixed in neutralized paraformaldehyde followed by H&E staining. Clinical pathologists reviewed the H&E staining and scored blinded with animal ID. The pathological scoring standards were: crypt architecture (normal, 0-severe crypt distortion with loss of entire crypts, 3), degree of inflammatory cell infiltration (normal, 0-dense inflammatory infiltrate, 3), muscle thickening (base of crypt sits on the muscularis mucosae, 0-marked muscle thickening present, 3), goblet cell depletion (absent, 0-present, 1) and crypt abscess (absent, 0-present, 1).
The plasma was collected at Day-1 for PK and cytokine (IL-1ß and IL-6) analysis by mandibular venipuncture.
(§6) The data was compared by ANOVA with post-hoc Dunnett's multiple comparisons test using Graph Pad Prism 7.0 software (San Diego, CA, USA). P-value<0.05 was considered as statistically significant difference. For pairwise comparison of histology scores and cytokines, unpaired t-test was used to calculate statistical significance. Data was expressed as mean±standard error of mean. In figures, statistical significance is denoted by asterisks: *p<0.05 **p<0.01 ***p<0.005, ****p<0.0001.

Test [4] has the same test system. The test is described as follows: TNBS-induced model of colitis in mice, dosing from day 2, therapeutic mode. The class given is in vivo. The conditions noted are these: for IL-1B in plasma / IL-6 in plasma: dosing from day 2, vs Vehicle group. Here is the method: as §3, §4, §5, §6
Procedures were identical to those in Example 26, except that dosing of the compounds described herein, as well as the positive control mesalamine, began on the second day after TNBS administration, as diagrammed in FIG. 18. Animals in this scenario have developed colitis symptoms before administration of test articles. This is more similar to the clinical scenario with patients with inflammatory bowel disorder presenting with symptoms. For this reason, we refer to these conditions as “therapeutic mode”.

The test system of test [5] is LPS induced septic shock, C57/B6L mice. The test is described as follows: LPS induced septic shock model in mice. Format: in vivo. Here is the method: In the LPS induced septic shock model in mice, the TLR4 agonist LPS is injected into the peritoneal cavity of mice, inducing production of pro-inflammatory cytokines that can be measured in blood two hours later (FIG. 2).
Female C57/B6L mice, 5 mice in each group, were injected with LPS (1 mg/kg) to induce septic shock 30 minutes after oral administration of compounds described herein (formulated in Phosal 50) or the controls dexamethasone (formulated in saline), a corticosteroid, and MCC950 (formulated in 0.5% methylcellulose), an inflammasome inhibitor. The mice were euthanized 2 hours after LPS stimulation, and the whole blood was drawn, processed to plasma, and snap frozen. Cytokine levels in plasma were determined by cytometric bead array assay.

Where [6] appears, read: 30 mg/kg PO, QD, dosing from day 2.
Where [7] appears, read: 30 mg/kg PO in Phosal 50, 30 min before LPS 1 mg/kg, plasma 2 hours after LPS, vs vehicle.

The term inhibition denotes how much of the control response was suppressed. Broadly, the ED50 is the dose at which the effect has come halfway, by size or by number of responders.

Turning to `CN1[C@@H](C(=O)O)CC[C@@H]1[C@@H]1COC(c2ccccc2O)=N1` [Compound I-1, (2R,5R)-5-((R)-2-(2-hydroxyphenyl)-4,5-dihydrooxazol-4-yl)-1-methylpyrrolidine-2-carboxylic acid], the inhibition at 10 µM in test [1] worked out at 10%; in test [2] it was 20%.

On to `CN1[C@@H](C(=O)O)CC[C@H]1[C@@H]1COC(c2ccccc2O)=N1` [Compound I-2, (2R,5S)-5-((R)-2-(2-hydroxyphenyl)-4,5-dihydrooxazol-4-yl)-1-methylpyrrolidine-2-carboxylic acid], for which the results for the inhibition at 10 µM in test [1] and in test [2] were 5% and 31%, respectively.

Turning to `CN1[C@@H](C(=O)O)CC[C@@H]1[C@@H]1CSC(c2ccccc2O)=N1` [Compound I-3, (2R,5R)-5-((R)-2-(2-hydroxyphenyl)-4,5-dihydrothiazol-4-yl)-1-methylpyrrolidine-2-carboxylic acid], the “body weight (% initial weight) recovery” value in test [3] (30 mg/kg, PO, QD, day -1 to day 6) is recorded as “faster recovery rate”. In test [3] (1, 3, 10 and 30 mg/kg PO, QD), the total histology scores entry is recorded as “lower”; the IL-1ß in plasma result was “decreased”; the IL-6 in plasma entry was “decreased”; the “pathological score (crypt structure failure, inflammatory cell infiltration)” value is on record as “lower”. Also, the “Disease Activity Index (DAI) scores” value in test [3] (1, 3, 10 and 30 mg/kg PO, QD, day -1 to day 6) is “dose-dependent improvement”. In test [3] (Mus musculus, 144 h, PO, QD, day -1 to day 6, read-out: dose for half maximal effect or ED50 (DAI score at Day 6)), the ED50 turned out to be 15 mg/kg. In addition, in test [3] (in a dose-dependent manner, prophylactic mode), the “colon recovery and mucosal healing” value was “promoted the colon recovery and mucosal healing”. Also, in test [4] (setting [6]), the “Disease Activity Index (DAI) scores” value is given as “improvement”, the “body weight (% initial weight) recovery” value is recorded as “faster recovery rate” and the total histology scores entry is “lower”. In addition, in test [4] (30 mg/kg PO, QD), the IL-1B in plasma result is recorded as “decreased” and the IL-6 in plasma entry is recorded as “decreased”. Besides, the “colon recovery and mucosal healing” value in test [4] (therapeutic mode) is “promoted the colon recovery and mucosal healing”. In addition, the inhibition at 10 µM in test [1] is 40%. For the same molecule, the inhibition at 10 µM in test [2] was not below 50%. Moreover, in test [5] (setting [7]), the IFNγ in plasma entry is “statistically significant decreases”, the IL-12p70 in plasma entry is listed as “statistically significant decreases” and the TNFα in plasma result is “statistically significant decreases”.

Turning to `CNC(=O)[C@H]1CC[C@@H]([C@@H]2CSC(c3ccccc3O)=N2)N1C` [Compound I-5, (2R,5S)-5-((R)-2-(2-hydroxyphenyl)-4,5-dihydrothiazol-4-yl)-N,1-dimethyl pyrrolidine-2-carboxamide], the inhibition at 10 µM in test [1] came to 27%; in test [2], 17%.

`COCCOCCOc1ccc(C2=N[C@H]([C@@H]3CC[C@H](C(=O)O)N3C)CO2)c(O)c1` [Compound I-7, (2R,5S)-5-((R)-2-(2-hydroxy-4-(2-(2-methoxyethoxy)ethoxy)phenyl)-4,5-dihydrooxazol-4-yl)-1-methylpyrrolidine-2-carboxylic acid]: the inhibition at 10 µM is 28% in test [1] and not below 50% in test [2].

For `COCCOCCOc1ccc(C2=N[C@H]([C@@H]3CC[C@H](C(=O)O)N3C)CS2)c(O)c1` [Compound I-8, (2R,5S)-5-((R)-2-(2-hydroxy-4-(2-(2-methoxyethoxy)ethoxy)phenyl)-4,5-dihydrothiazol-4-yl)-1-methylpyrrolidine-2-carboxylic acid], the inhibition at 10 µM in test [1] and in test [2] was not below 50% throughout.

Regarding `COCCOCCOc1ccc(C2=N[C@H]([C@H]3CC[C@H](C(=O)O)N3C)CS2)c(O)c1` [Compound I-10, (2R,5R)-5-((R)-2-(2-hydroxy-4-(2-(2-methoxyethoxy)ethoxy)phenyl)-4,5-dihydrothiazol-4-yl)-1-methylpyrrolidine-2-carboxylic acid], the results for the inhibition at 10 µM in test [1] and in test [2] were 14% and 3%, respectively.

`CN1[C@@H](C(=O)O)CC[C@@H]1[C@@H]1COC(c2ncccc2O)=N1` [Compound I-11, (2R,5R)-5-((R)-2-(3-hydroxypyridin-2-yl)-4,5-dihydrooxazol-4-yl)-1-methylpyrrolidine-2-carboxylic acid]: the inhibition at 10 µM in test [1] is 6%; in test [2], 5%.

As for `Nc1ccc(O)c(C(=O)O)c1` [Mesalazine, reference compound], in test [3] (100 mg/kg PO, QD), the total histology scores entry was “lower” and the “pathological score (crypt structure failure, inflammatory cell infiltration)” value was “lower”. For the same molecule, in test [3] (100 mg/kg, QD, day -1 to day 6), the “body weight (% initial weight) recovery” value is reported as “faster recovery rate”. In test [3] (100 mg/kg, QD), the IL-1ß in plasma result is “decreased” and the IL-6 in plasma entry is reported as “decreased”. For the same molecule, the total histology scores result in test [4] (100 mg/kg PO, QD, dosing from day 2) is listed as “lower”. For the same molecule, the “body weight (% initial weight) recovery” value in test [4] (100 mg/kg, QD, dosing from day 2) is “faster recovery rate”. In addition, in test [4] (100 mg/kg, QD), the IL-1B in plasma result is “decreased” and the IL-6 in plasma result is given as “decreased”.

As for `C[C@@H]1C[C@H]2[C@@H]3CCC4=CC(=O)C=C[C@]4(C)[C@@]3(F)[C@@H](O)C[C@]2(C)[C@@]1(O)C(=O)CO` [dexamethasone, reference compound], the “activity on plasma cytokines (positive control)” value in test [5] (1.5 mg/kg PO, formulated in saline) was “active”.

The values above are taken from US20260193242A1, “USEFUL COMPOUNDS FOR MODULATING INFLAMMATION” (FLAGSHIP PIONEERING INNOVATIONS VI, LLC, priority 2022, published 2026).
